Assay results published in patent US20250388604A1, “Compounds and Their Use as PDE4 Activators” (Mironid Limited, priority 2022, published 2025).

What was measured:
[1] = target: T1, human PDE4D5 (long isoform) (Homo sapiens, UniProt Q08499); experiment: PDE assay, [3H]cAMP two-step radio-assay, PDE4D5 long isoform activation; assay type: biochemical; conditions: 100 μM test compound; mean % increase in counts over basal activity
T1 construct: Using Full-Length Human PDE4 Isoforms; Long Forms PDE4D5, PDE4C3, PDE4B1 and Short Form PDE4B2; made in house; cytosol fraction (100,000 g supernatant) of the cell lysate, not purified
Method: One suitable method of detecting whether or not a compound is capable of serving as an activator of a PDE4 long form is using a two-step radio-assay procedure described in Experiment 1. In summary, the method involves incubating a PDE4 long form with a test small molecule activator, together with [^3H]-labelled cAMP to assess alterations in the breakdown of cAMP to the 5′-adenosine monophosphate (5′-AMP) product. A sample of the reaction mixture from such an incubation is subsequently treated with snake venom 5′-nucleotidase to allow conversion of the nucleotide [^3H]-labelled 5′-AMP to the uncharged nucleoside [^3H]-labelled adenosine, which can be separated and quantified to assess PDE4 activity and the effect of the test compound (Thompson, W. J. and Appleman, M. M. Biochemistry 10: 311-316, 1971, with some modifications as described in: Marchmont, R. J. and Houslay, M. D. Biochem J. 187: 381-92, 1980). […]
The cell lysate containing recombinant PDE4D5 was transferred into a centrifuge tube and placed into an ultracentrifuge (BECKMAN COULTER) and spun at high speed (100,000 g) for 30 minutes at 4° C. The cytosol fraction was then collected and its protein amount determined using a BCA protein assay. […]

[2] = tested on: m-IMCD3 cells expressing PDE4 long forms; experiment: cAMP levels in PGE2-stimulated 3D m-IMCD3 cell culture media; assay type: cell-based; conditions: Mus musculus, mIMCD3; 3 μM test compound; compared to 100% for (DMSO + PGE2); read-out: cAMP level (% of PGE2-stimulated)
Method: HEK 293 and MDCK cells (Public Health England, Cell Culture Collections) were maintained in Dulbecco's Modified Eagle's Medium (DMEM) supplemented with 10% (v/v) fetal bovine serum (FBS) (Seralab), 2 mM L-glutamine and 100 U/mL penicillin streptomycin cocktail (ThermoFisher); termed complete media. Clonal HEK 293 cell lines were maintained in complete media supplemented with 0.6 mg/ml G418 (Enzo Life Sciences). Mouse inner medullary collecting duct (m-IMCD3) cells [American Type Culture Collection (ATCC)] were maintained in media consisting of DMEM/Hams F-12 50/50 Mix (DMEM F12; Corning) supplemented with penicillin streptomycin cocktail (100 U/mL) and FBS (10% v/v) (DMEM F12-10% FBS).
Activation of intracellular PDE4 long forms leads to a reduction of both intracellular cAMP and externalised cAMP (Omar et al., PNAS 116: 13320-13329, 2019). This reduction may be measured in the cell culture media supernatant of 3D cystic cell cultures, such as in the m-IMCD3 cell cyst suppression assay described in Experiment 3.
Following the completion of the m-IMCD3 cell cyst suppression assay (Experiment 3), the cAMP level in the assay media from individual or pooled assay wells was measured using a cAMP ELISA kit (Enzo Life Sciences) or a LANCE Ultra cAMP kit (PerkinElmer) according to the manufacturer's instructions.

[3] = target: T2, human PDE4B2 (short isoform) (Homo sapiens, UniProt Q07343); experiment: PDE assay, [3H]cAMP two-step radio-assay, PDE4B2 short isoform activation; assay type: biochemical; conditions: 100 μM test compound; mean % increase in counts over basal activity
T2 construct: the full length human PDE4B2 short isoform; made in house

[4] = tested on: m-IMCD3 cells; experiment: Inhibition of PGE2-stimulated in vitro cyst formation in m-IMCD3 cells; assay type: cell-based, mouse; conditions: Mus musculus, mIMCD3, 144 h, 3 μM; mean cyst area, 100% for (DMSO + PGE2) and 0% for DMSO control; 6 days of culture; read-out: % Cyst area after incubation with 3 μM test compound
In short: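 m-IMCD3 cells embedded in collagen I/Matrigel 3D culture; 18–24 h after plating, compound (0.1% DMSO final) plus PGE2 (100 nM final) added, replenished after 2 or 3 days. After 6 days, z-stack imaging gave mean cyst area, normalized to DMSO+PGE2 (100%) and DMSO (0%).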

T1 sequence (Q08499 1-745 isoform Q08499-6): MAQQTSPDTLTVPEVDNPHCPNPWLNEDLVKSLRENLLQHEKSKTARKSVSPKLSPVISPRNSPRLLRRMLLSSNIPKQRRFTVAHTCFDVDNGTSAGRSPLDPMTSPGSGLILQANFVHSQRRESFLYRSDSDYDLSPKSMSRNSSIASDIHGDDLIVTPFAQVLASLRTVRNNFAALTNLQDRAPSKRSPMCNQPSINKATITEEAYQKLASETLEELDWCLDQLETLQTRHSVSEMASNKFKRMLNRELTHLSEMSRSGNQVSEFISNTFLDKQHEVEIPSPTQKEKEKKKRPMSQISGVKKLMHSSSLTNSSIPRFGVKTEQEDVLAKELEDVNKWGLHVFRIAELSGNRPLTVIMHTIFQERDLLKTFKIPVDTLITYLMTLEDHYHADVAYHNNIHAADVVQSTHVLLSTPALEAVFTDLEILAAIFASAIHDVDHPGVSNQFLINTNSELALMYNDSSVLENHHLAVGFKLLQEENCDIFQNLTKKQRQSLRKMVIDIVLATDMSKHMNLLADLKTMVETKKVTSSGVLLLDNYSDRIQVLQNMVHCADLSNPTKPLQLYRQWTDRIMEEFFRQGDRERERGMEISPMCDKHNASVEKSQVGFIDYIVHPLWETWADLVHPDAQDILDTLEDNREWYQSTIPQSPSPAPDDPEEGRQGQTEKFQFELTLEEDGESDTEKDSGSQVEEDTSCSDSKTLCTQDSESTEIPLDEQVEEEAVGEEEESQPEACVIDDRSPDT
T2 sequence (Q07343 1-564 isoform Q07343-2): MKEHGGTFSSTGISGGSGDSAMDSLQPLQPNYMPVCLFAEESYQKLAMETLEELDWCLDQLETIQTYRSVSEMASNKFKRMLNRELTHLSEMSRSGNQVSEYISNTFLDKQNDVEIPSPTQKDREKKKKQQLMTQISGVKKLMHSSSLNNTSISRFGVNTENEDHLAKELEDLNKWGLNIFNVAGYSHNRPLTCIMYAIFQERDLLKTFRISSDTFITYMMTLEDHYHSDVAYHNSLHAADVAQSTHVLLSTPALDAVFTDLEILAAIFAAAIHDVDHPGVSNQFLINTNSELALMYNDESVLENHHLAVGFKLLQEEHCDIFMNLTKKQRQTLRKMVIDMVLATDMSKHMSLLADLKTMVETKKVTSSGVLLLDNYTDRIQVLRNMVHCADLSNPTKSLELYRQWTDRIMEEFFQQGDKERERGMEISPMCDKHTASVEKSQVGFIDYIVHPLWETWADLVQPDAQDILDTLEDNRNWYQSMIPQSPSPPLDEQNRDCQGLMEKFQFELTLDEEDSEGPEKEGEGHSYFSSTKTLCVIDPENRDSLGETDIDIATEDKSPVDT

Structure (SMILES): O=S(=O)(NC1CCCC1)N1CCc2nc(N3C4CCC3CNC4)sc2C1 [Example 108, 2-(3,8-diazabicyclo[3.2.1]octan-8-yl)-N-cyclopentyl-6,7-dihydrothiazolo[5,4-c]pyridine-5(4H)-sulfonamide]
- % increase in PDE4D5 (long isoform) activity at 100 μM [1]: 22%
- activity at 3 µM [2]: 53%

Structure (SMILES): O=C(CC1CCCC1)N1CCc2nc(N3CCN4CCC[C@H]4C3)sc2C1 [Example 271, (S)-2-cyclopentyl-1-(2-(hexahydropyrrolo[1,2-a]pyrazin-2(1H)-yl)-6,7-dihydrothiazolo[5,4-c]pyridin-5(4H)-yl)ethan-1-one]
- % increase in PDE4B2 (short isoform) activity at 100 μM [3]: −15%
- % increase in PDE4D5 (long isoform) activity at 100 μM [1]: 28%
- activity at 3 µM [2]: 42%
- activity at 3 µM [4]: 4%

Structure (SMILES): CCN1CC2CCC(C1)N2c1nc2c(s1)CN(S(=O)(=O)Cc1ccc(F)cc1)CC2 [Example 286, 2-(3-ethyl-3,8-diazabicyclo[3.2.1]octan-8-yl)-5-((4-fluorobenzyl)sulfonyl)-4,5,6,7-tetrahydrothiazolo[5,4-c]pyridine]
- activity at 3 µM [2]: 52%
- activity at 3 µM [4]: -2%

Structure (SMILES): O=S(=O)(Cc1ccccc1)N1CCc2nc(N3C4CCC3CNC4)sc2C1 [Example 288, 5-(benzylsulfonyl)-2-(3,8-diazabicyclo[3.2.1]octan-8-yl)-4,5,6,7-tetrahydrothiazolo[5,4-c]pyridine]
- activity at 3 µM [2]: 34%
- activity at 3 µM [4]: 7%

Structure (SMILES): CC(C)N1CC2CCC(C1)N2c1nc2c(s1)CN(C(=O)CC1CCCC1)CC2 [Example 290, 2-cyclopentyl-1-(2-(3-isopropyl-3,8-diazabicyclo[3.2.1]octan-8-yl)-6,7-dihydrothiazolo[5,4-c]pyridin-5(4H)-yl)ethan-1-one]
- activity at 3 µM [2]: 35%
- activity at 3 µM [4]: -9%

Structure (SMILES): CCN1CC2CCC(C1)N2c1nc2c(s1)CN(C(=O)CC1CCCC1)CC2 [Example 291, 2-cyclopentyl-1-(2-(3-ethyl-3,8-diazabicyclo[3.2.1]octan-8-yl)-6,7-dihydrothiazolo[5,4-c]pyridin-5(4H)-yl)ethan-1-one]
- activity at 3 µM [2]: 45%
- activity at 3 µM [4]: 3%

Structure (SMILES): O=C(N[C@H]1CCOc2ccccc21)N1CCc2nc(N3C4CCC3CNC4)sc2C1 [Example 293, 2-(3,8-diazabicyclo[3.2.1]octan-8-yl)-N—((S)-chroman-4-yl)-6,7-dihydrothiazolo[5,4-c]pyridine-5(4H)-carboxamide]
- activity at 3 µM [2]: 36%
- activity at 3 µM [4]: 4%

Structure (SMILES): CCN1CC2CCC(C1)N2c1nc2c(s1)CN(C(=O)N[C@H]1CCOc3ccccc31)CC2 [Example 294, N—((S)-chroman-4-yl)-2-(3-ethyl-3,8-diazabicyclo[3.2.1]octan-8-yl)-6,7-dihydrothiazolo[5,4-c]pyridine-5(4H)-carboxamide]
- activity at 3 µM [2]: 39%
- activity at 3 µM [4]: -5%

Structure (SMILES): CCN1CCN(c2nc3c(s2)CN(C(=O)N[C@H]2CCOc4ccccc42)CC3)CC1 [Example 297, (S)—N-(chroman-4-yl)-2-(4-ethylpiperazin-1-yl)-6,7-dihydrothiazolo[5,4-c]pyridine-5(4H)-carboxamide]
- activity at 3 µM [2]: 45%
- activity at 3 µM [4]: 9%

Structure (SMILES): CC(C)N1CC2CCC(C1)N2c1nc2c(s1)CN(C(=O)COc1ccc(F)cc1)CC2 [Example 298, 2-(4-fluorophenoxy)-1-(2-(3-isopropyl-3,8-diazabicyclo[3.2.1]octan-8-yl)-6,7-dihydrothiazolo[5,4-c]pyridin-5(4H)-yl)ethan-1-one]
- activity at 3 µM [2]: 48%
- activity at 3 µM [4]: -7%

Structure (SMILES): CCN1CC2CCC(C1)N2c1nc2c(s1)CN(C(=O)NCc1ccc(F)cc1)CC2 [Example 300, 2-(3-ethyl-3,8-diazabicyclo[3.2.1]octan-8-yl)-N-(4-fluorobenzyl)-6,7-dihydrothiazolo[5,4-c]pyridine-5(4H)-carboxamide]
- activity at 3 µM [2]: 48%
- activity at 3 µM [4]: -3%

Structure (SMILES): CCN1CC2CCC(C1)N2c1nc2c(s1)CN(C(=O)COc1ccc(F)cc1)CC2 [Example 302, 1-(2-(3-ethyl-3,8-diazabicyclo[3.2.1]octan-8-yl)-6,7-dihydrothiazolo[5,4-c]pyridin-5(4H)-yl)-2-(4-fluorophenoxy)ethan-1-one]
- activity at 3 µM [2]: 48%
- activity at 3 µM [4]: 5%

Structure (SMILES): CCCN1CC2CCC(C1)N2c1nc2c(s1)CN(C(=O)COc1ccc(F)cc1)CC2 [Example 303, 2-(4-fluorophenoxy)-1-(2-(3-propyl-3,8-diazabicyclo[3.2.1]octan-8-yl)-6,7-dihydrothiazolo[5,4-c]pyridin-5(4H)-yl)ethan-1-one]
- activity at 3 µM [2]: 55%
- activity at 3 µM [4]: 0%

Structure (SMILES): CCN1CCN(c2nc3c(s2)CN(S(=O)(=O)Cc2ccc(F)cc2)CC3)CC1 [Example 304, 2-(4-ethylpiperazin-1-yl)-5-((4-fluorobenzyl)sulfonyl)-4,5,6,7-tetrahydrothiazolo[5,4-c]pyridine]
- activity at 3 µM [2]: 47%
- activity at 3 µM [4]: 13%
